Counter-ions that a name gives are not always drawn.
Experiments:
Type in all cases: biochemical
Details in all cases: FDA-approved drug screen; compared to DMSO
recombinant PRL-1 = target: T1, recombinant PRL-1 (Homo sapiens, UniProt Q93096); test: In vitro phosphatase assay (DiFMUP hydrolysis), PRL-1; further: test concentration or dose not given here
T1 construct: 6xHis (N, cleaved yes); made in house; host or cells: E. coli One Shot BL21 Star
T1 sequence (Q93096 1-173): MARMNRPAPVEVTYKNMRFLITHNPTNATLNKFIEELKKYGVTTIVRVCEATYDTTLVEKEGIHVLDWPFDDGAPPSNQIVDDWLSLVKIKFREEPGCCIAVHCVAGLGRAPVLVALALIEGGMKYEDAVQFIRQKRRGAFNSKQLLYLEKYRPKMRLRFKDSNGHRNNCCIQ

recombinant PRL-2 = target: T2, recombinant PRL-2 (Homo sapiens, UniProt Q12974); test: In vitro phosphatase assay (DiFMUP hydrolysis), PRL-2;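 further: PRL-2 activity read as DiFMUP hydrolysis after 20 min at room temperature with drug, enzyme first pre-reduced at 4 °C for 20 min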
T2 construct: 6xHis (N, cleaved yes); made in house; host or cells: E. coli One Shot BL21 Star
T2 sequence (Q12974 1-167): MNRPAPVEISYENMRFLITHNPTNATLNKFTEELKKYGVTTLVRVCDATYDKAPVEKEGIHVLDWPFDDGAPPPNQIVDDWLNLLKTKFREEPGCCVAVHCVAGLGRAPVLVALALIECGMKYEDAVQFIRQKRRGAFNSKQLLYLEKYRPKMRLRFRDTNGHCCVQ

recombinant PRL-3 = target: T3, recombinant PRL-3 (Homo sapiens, UniProt O75365); test: In vitro phosphatase assay (DiFMUP hydrolysis), PRL-3; further: test concentration or dose not given here
T3 construct: 6xHis (N, cleaved yes); made in house; host or cells: E. coli One Shot BL21 Star
T3 sequence (O75365 whole entry): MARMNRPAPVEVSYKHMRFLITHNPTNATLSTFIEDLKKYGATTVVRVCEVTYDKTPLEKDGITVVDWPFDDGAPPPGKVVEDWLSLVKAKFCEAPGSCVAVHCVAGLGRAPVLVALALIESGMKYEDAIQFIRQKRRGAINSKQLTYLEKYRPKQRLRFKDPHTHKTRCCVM

CCNC1(C(N)=O)CCN(c2ncnc3c2nc(-c2ccccc2Cl)n3-c2ccc(Cl)cc2)CC1.Cl [Otenabant (CP-945598) HCl]
% Phosphatase Activity (compared to DMSO) PRL-1 (recombinant PRL-1): 96% | % Phosphatase Activity (compared to DMSO) PRL-2 (recombinant PRL-2): 78% | % Phosphatase Activity (compared to DMSO) PRL-3 (recombinant PRL-3): 97%

CCCCCCCCOc1ccccc1C(=O)Nc1ccc(C(=O)OCC[N+](C)(CC)CC)cc1 [Otilonium Bromide]
% Phosphatase Activity (compared to DMSO) PRL-1 (recombinant PRL-1): 102% | % Phosphatase Activity (compared to DMSO) PRL-2 (recombinant PRL-2): 105% | % Phosphatase Activity (compared to DMSO) PRL-3 (recombinant PRL-3): 111%

Cc1onc(-c2ccccc2)c1C(=O)N[C@@H]1C(=O)N2[C@@H]1SC(C)(C)[C@@H]2C(=O)[O-].O.[Na+] [Oxacillin sodium monohydrate]
% Phosphatase Activity (compared to DMSO) PRL-1 (recombinant PRL-1): 98% | % Phosphatase Activity (compared to DMSO) PRL-2 (recombinant PRL-2): 90% | % Phosphatase Activity (compared to DMSO) PRL-3 (recombinant PRL-3): 83%

O=C(O)C(=O)O.[NH-][C@@H]1CCCC[C@H]1[NH-].[Pt+2] [Oxaliplatin]
% Phosphatase Activity (compared to DMSO) PRL-1 (recombinant PRL-1): 92% | % Phosphatase Activity (compared to DMSO) PRL-2 (recombinant PRL-2): 97% | % Phosphatase Activity (compared to DMSO) PRL-3 (recombinant PRL-3): 76%

O=C(O)CCc1nc(-c2ccccc2)c(-c2ccccc2)o1 [Oxaprozin]
% Phosphatase Activity (compared to DMSO) PRL-1 (recombinant PRL-1): 96% | % Phosphatase Activity (compared to DMSO) PRL-2 (recombinant PRL-2): 106% | % Phosphatase Activity (compared to DMSO) PRL-3 (recombinant PRL-3): 71%

NC(=O)N1c2ccccc2CC(=O)c2ccccc21 [Oxcarbazepine]
% Phosphatase Activity (compared to DMSO) PRL-1 (recombinant PRL-1): 104% | % Phosphatase Activity (compared to DMSO) PRL-2 (recombinant PRL-2): 112% | % Phosphatase Activity (compared to DMSO) PRL-3 (recombinant PRL-3): 89%

CCN(CC)CCOCCOC(=O)C(CC)(CC)c1ccccc1.O=C(O)CC(O)(CC(=O)O)C(=O)O [Oxeladin Citrate]
% Phosphatase Activity (compared to DMSO) PRL-1 (recombinant PRL-1): 90% | % Phosphatase Activity (compared to DMSO) PRL-2 (recombinant PRL-2): 88% | % Phosphatase Activity (compared to DMSO) PRL-3 (recombinant PRL-3): 89%

COC(=O)Nc1nc2ccc([S+]([O-])c3ccccc3)cc2[nH]1 (stereo not drawn) [Oxfendazole]
% Phosphatase Activity (compared to DMSO) PRL-1 (recombinant PRL-1): 84% | % Phosphatase Activity (compared to DMSO) PRL-2 (recombinant PRL-2): 102% | % Phosphatase Activity (compared to DMSO) PRL-3 (recombinant PRL-3): 92%

NC(=O)CN1CC(O)CC1=O (stereo not drawn) [Oxiracetam]
% Phosphatase Activity (compared to DMSO) PRL-1 (recombinant PRL-1): 94% | % Phosphatase Activity (compared to DMSO) PRL-2 (recombinant PRL-2): 122% | % Phosphatase Activity (compared to DMSO) PRL-3 (recombinant PRL-3): 71%

COc1ccc(C(=O)c2ccccc2)c(O)c1 [Oxybenzone]
% Phosphatase Activity (compared to DMSO) PRL-1 (recombinant PRL-1): 99% | % Phosphatase Activity (compared to DMSO) PRL-2 (recombinant PRL-2): 81% | % Phosphatase Activity (compared to DMSO) PRL-3 (recombinant PRL-3): 93%

CCCCOc1cc(C(=O)OCCN(CC)CC)ccc1N [Oxybuprocaine HCl]
% Phosphatase Activity (compared to DMSO) PRL-1 (recombinant PRL-1): 97% | % Phosphatase Activity (compared to DMSO) PRL-2 (recombinant PRL-2): 103% | % Phosphatase Activity (compared to DMSO) PRL-3 (recombinant PRL-3): 93%

CCN(CC)CC#CCOC(=O)C(O)(c1ccccc1)C1CCCCC1 (stereo not drawn) [Oxybutynin chloride]
% Phosphatase Activity (compared to DMSO) PRL-1 (recombinant PRL-1): 88% | % Phosphatase Activity (compared to DMSO) PRL-2 (recombinant PRL-2): 85% | % Phosphatase Activity (compared to DMSO) PRL-3 (recombinant PRL-3): 75%

CCN(CC)CC#CCOC(=O)C(O)(c1ccccc1)C1CCCCC1 (stereo not drawn) [Oxybutynin]
% Phosphatase Activity (compared to DMSO) PRL-1 (recombinant PRL-1): 91% | % Phosphatase Activity (compared to DMSO) PRL-2 (recombinant PRL-2): 99% | % Phosphatase Activity (compared to DMSO) PRL-3 (recombinant PRL-3): 118%

Cc1cc(C(C)(C)C)c(O)c(C)c1CC1=NCCN1 [Oxymetazoline hydrochloride]
% Phosphatase Activity (compared to DMSO) PRL-1 (recombinant PRL-1): 99% | % Phosphatase Activity (compared to DMSO) PRL-2 (recombinant PRL-2): 118% | % Phosphatase Activity (compared to DMSO) PRL-3 (recombinant PRL-3): 82%

CN(C)[C@@H]1C(=O)C(C(N)=O)=C(O)[C@@]2(O)C(=O)C3=C(O)c4c(O)cccc4[C@@](C)(O)[C@H]3[C@H](O)[C@@H]12 [Oxytetracycline (Terramycin)]
% Phosphatase Activity (compared to DMSO) PRL-1 (recombinant PRL-1): 58% | % Phosphatase Activity (compared to DMSO) PRL-2 (recombinant PRL-2): 73% | % Phosphatase Activity (compared to DMSO) PRL-3 (recombinant PRL-3): 74%

CN(C)[C@@H]1C(O)=C(C(N)=O)C(=O)[C@@]2(O)C(O)=C3C(=O)c4c(O)cccc4[C@@](C)(O)[C@H]3[C@H](O)[C@@H]12 [Oxytetracycline Dihydrate]
% Phosphatase Activity (compared to DMSO) PRL-1 (recombinant PRL-1): 98% | % Phosphatase Activity (compared to DMSO) PRL-2 (recombinant PRL-2): 101% | % Phosphatase Activity (compared to DMSO) PRL-3 (recombinant PRL-3): 98%

O=C(O)/C=C/c1ccc(Cn2ccnc2)cc1 [Ozagrel]
% Phosphatase Activity (compared to DMSO) PRL-1 (recombinant PRL-1): 96% | % Phosphatase Activity (compared to DMSO) PRL-2 (recombinant PRL-2): 101% | % Phosphatase Activity (compared to DMSO) PRL-3 (recombinant PRL-3): 76%

CC(C)Oc1ccc(-c2nc(-c3cccc4c3CC[C@@H]4NCCO)no2)cc1C#N [Ozanimod (RPC1063)]
% Phosphatase Activity (compared to DMSO) PRL-1 (recombinant PRL-1): 95% | % Phosphatase Activity (compared to DMSO) PRL-2 (recombinant PRL-2): 101% | % Phosphatase Activity (compared to DMSO) PRL-3 (recombinant PRL-3): 88%

CN(C)Cc1c(C(=O)NCCOc2ccc(C(=O)NO)cc2)oc2ccccc12 [PCI-24781 (Abexinostat)]
% Phosphatase Activity (compared to DMSO) PRL-1 (recombinant PRL-1): 100% | % Phosphatase Activity (compared to DMSO) PRL-2 (recombinant PRL-2): 96% | % Phosphatase Activity (compared to DMSO) PRL-3 (recombinant PRL-3): 86%

CC(=O)O[C@H]1C(=O)[C@@]2(C)[C@H]([C@H](OC(=O)c3ccccc3)[C@]3(O)C[C@H](OC(=O)[C@H](O)[C@@H](NC(=O)c4ccccc4)c4ccccc4)C(C)=C1C3(C)C)[C@]1(OC(C)=O)CO[C@@H]1C[C@@H]2O [Paclitaxel]
% Phosphatase Activity (compared to DMSO) PRL-1 (recombinant PRL-1): 94% | % Phosphatase Activity (compared to DMSO) PRL-2 (recombinant PRL-2): 97% | % Phosphatase Activity (compared to DMSO) PRL-3 (recombinant PRL-3): 76%

C1=N/C2=N/c3ccc(OCCN4CCCC4)c(c3)COC/C=C/COCc3cccc(c3)C(=C1)N2 [Pacritinib (SB1518)]
% Phosphatase Activity (compared to DMSO) PRL-1 (recombinant PRL-1): 95% | % Phosphatase Activity (compared to DMSO) PRL-2 (recombinant PRL-2): 98% | % Phosphatase Activity (compared to DMSO) PRL-3 (recombinant PRL-3): 78%

CC(=O)c1c(C)c2cnc(Nc3ccc(N4CCNCC4)cn3)nc2n(C2CCCC2)c1=O.O=S(=O)(O)CCO [Palbociclib (PD0332991) Isethionate]
% Phosphatase Activity (compared to DMSO) PRL-1 (recombinant PRL-1): 75% | % Phosphatase Activity (compared to DMSO) PRL-2 (recombinant PRL-2): 61% | % Phosphatase Activity (compared to DMSO) PRL-3 (recombinant PRL-3): 100%

CC(=O)c1c(C)c2cnc(Nc3ccc(N4CCNCC4)cn3)nc2n(C2CCCC2)c1=O.Cl [Palbociclib (PD-0332991) HCl]
% Phosphatase Activity (compared to DMSO) PRL-1 (recombinant PRL-1): 68% | % Phosphatase Activity (compared to DMSO) PRL-2 (recombinant PRL-2): 61% | % Phosphatase Activity (compared to DMSO) PRL-3 (recombinant PRL-3): 102%

Cc1nc2n(c(=O)c1CCN1CCC(c3noc4cc(F)ccc34)CC1)CCCC2O (stereo not drawn) [Paliperidone]
% Phosphatase Activity (compared to DMSO) PRL-1 (recombinant PRL-1): 102% | % Phosphatase Activity (compared to DMSO) PRL-2 (recombinant PRL-2): 103% | % Phosphatase Activity (compared to DMSO) PRL-3 (recombinant PRL-3): 75%

O=C1c2cccc3c2[C@H](CCC3)CN1[C@@H]1CN2CCC1CC2 [Palonosetron HCl]
% Phosphatase Activity (compared to DMSO) PRL-1 (recombinant PRL-1): 90% | % Phosphatase Activity (compared to DMSO) PRL-2 (recombinant PRL-2): 96% | % Phosphatase Activity (compared to DMSO) PRL-3 (recombinant PRL-3): 117%

NCCC(O)(P(=O)([O-])O)P(=O)([O-])O.[Na+].[Na+] [Pamidronate Disodium]
% Phosphatase Activity (compared to DMSO) PRL-1 (recombinant PRL-1): 98% | % Phosphatase Activity (compared to DMSO) PRL-2 (recombinant PRL-2): 80% | % Phosphatase Activity (compared to DMSO) PRL-3 (recombinant PRL-3): 91%

Cc1[nH]c2ccccc2c1CCNCc1ccc(/C=C/C(=O)NO)cc1 [Panobinostat (LBH589)]
% Phosphatase Activity (compared to DMSO) PRL-1 (recombinant PRL-1): 95% | % Phosphatase Activity (compared to DMSO) PRL-2 (recombinant PRL-2): 102% | % Phosphatase Activity (compared to DMSO) PRL-3 (recombinant PRL-3): 83%

COc1ccnc(C[S+]([O-])c2nc3ccc(OC(F)F)cc3[nH]2)c1OC (stereo not drawn) [Pantoprazole sodium]
% Phosphatase Activity (compared to DMSO) PRL-1 (recombinant PRL-1): 97% | % Phosphatase Activity (compared to DMSO) PRL-2 (recombinant PRL-2): 98% | % Phosphatase Activity (compared to DMSO) PRL-3 (recombinant PRL-3): 88%

CCC(=O)NS(=O)(=O)c1ccc(-c2c(-c3ccccc3)noc2C)cc1 [Parecoxib]
% Phosphatase Activity (compared to DMSO) PRL-1 (recombinant PRL-1): 98% | % Phosphatase Activity (compared to DMSO) PRL-2 (recombinant PRL-2): 84% | % Phosphatase Activity (compared to DMSO) PRL-3 (recombinant PRL-3): 74%

NC[C@@H]1O[C@H](O[C@H]2[C@@H](O)[C@H](O[C@@H]3[C@@H](O)[C@H](N)C[C@H](N)[C@H]3O[C@H]3O[C@H](CO)[C@@H](O)[C@H](O)[C@H]3N)O[C@@H]2CO)[C@H](N)[C@@H](O)[C@@H]1O [Paromomycin Sulfate]
% Phosphatase Activity (compared to DMSO) PRL-1 (recombinant PRL-1): 93% | % Phosphatase Activity (compared to DMSO) PRL-2 (recombinant PRL-2): 110% | % Phosphatase Activity (compared to DMSO) PRL-3 (recombinant PRL-3): 112%

Cl.Fc1ccc([C@@H]2CCNC[C@H]2COc2ccc3c(c2)OCO3)cc1 [Paroxetine HCl]
% Phosphatase Activity (compared to DMSO) PRL-1 (recombinant PRL-1): 90% | % Phosphatase Activity (compared to DMSO) PRL-2 (recombinant PRL-2): 128% | % Phosphatase Activity (compared to DMSO) PRL-3 (recombinant PRL-3): 95%

NNC(=O)c1ccncc1.Nc1ccc(C(=O)O)c(O)c1 [Pasiniazid]
% Phosphatase Activity (compared to DMSO) PRL-1 (recombinant PRL-1): 91% | % Phosphatase Activity (compared to DMSO) PRL-2 (recombinant PRL-2): 97% | % Phosphatase Activity (compared to DMSO) PRL-3 (recombinant PRL-3): 82%

Reference: article PMC8119466, “A screen of FDA-approved drugs identifies inhibitors of protein tyrosine phosphatase 4A3 (PTP4A3 or PRL-3)” (Scientific Reports, 2021)
